Tests used:
AtGH3.12/PBS3 = target: T1, AtGH3.12/PBS3 (Arabidopsis thaliana, UniProt Q9LYU4); test: TLC with [α-32P]ATP, acyl-AMP and AMP formation; assay type: biochemical; details: without or with glutamate, 1 mM MgCl2, pH 8.0, 25 °C
T1 construct: gene GH3.12; once misprinted PBS2
T1 sequence (Q9LYU4 1-575): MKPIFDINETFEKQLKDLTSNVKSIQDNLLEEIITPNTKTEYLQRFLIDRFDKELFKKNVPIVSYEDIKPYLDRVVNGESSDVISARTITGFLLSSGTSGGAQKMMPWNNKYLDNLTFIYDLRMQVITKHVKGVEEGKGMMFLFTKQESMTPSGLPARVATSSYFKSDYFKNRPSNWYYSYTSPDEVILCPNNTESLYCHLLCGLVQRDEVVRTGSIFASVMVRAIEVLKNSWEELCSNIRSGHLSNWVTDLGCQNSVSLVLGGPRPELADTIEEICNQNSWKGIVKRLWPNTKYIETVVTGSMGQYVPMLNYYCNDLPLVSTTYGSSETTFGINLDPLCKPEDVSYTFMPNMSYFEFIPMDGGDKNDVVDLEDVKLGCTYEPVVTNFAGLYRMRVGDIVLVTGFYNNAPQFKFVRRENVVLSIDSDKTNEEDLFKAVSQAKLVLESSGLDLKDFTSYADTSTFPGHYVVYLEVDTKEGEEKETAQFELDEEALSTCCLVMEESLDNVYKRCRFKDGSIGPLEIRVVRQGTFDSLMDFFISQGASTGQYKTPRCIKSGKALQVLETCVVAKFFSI

GH3-N2/C5 = test system: T2, GH3-N2/C5; test: coupled myokinase/pyruvate kinase/lactate dehydrogenase assay of AMP formation, A340; assay type: biochemical, Arabidopsis thaliana; details: 1 mM ATP, 5 mM aspartate, 1 mM MgCl2, pH 8.0, 25 °C
T2 construct: gene GH3.2; one fusion chain: AtGH3.2 residues 1-442 then AtGH3.5 residues 450-608; codon-optimized, pET-28a, His-tagged, E. coli Rosetta2 (DE3), monomer
Excerpt: coupled myokinase/pyruvate kinase/lactate dehydrogenase assay of AMP formation, A340 on GH3-N2/C5

AtGH3.11/JAR1 = target: T3, AtGH3.11/JAR1 (Arabidopsis thaliana, UniProt Q9SKE2); test: single-turnover TLC with [α-32P]ATP, acyl-AMP formation; assay type: biochemical; details: first half-reaction with JA, no amino acid, 1 mM MgCl2, pH 8.0, 25 °C; labelled compound
T3 sequence (Q9SKE2 1-575): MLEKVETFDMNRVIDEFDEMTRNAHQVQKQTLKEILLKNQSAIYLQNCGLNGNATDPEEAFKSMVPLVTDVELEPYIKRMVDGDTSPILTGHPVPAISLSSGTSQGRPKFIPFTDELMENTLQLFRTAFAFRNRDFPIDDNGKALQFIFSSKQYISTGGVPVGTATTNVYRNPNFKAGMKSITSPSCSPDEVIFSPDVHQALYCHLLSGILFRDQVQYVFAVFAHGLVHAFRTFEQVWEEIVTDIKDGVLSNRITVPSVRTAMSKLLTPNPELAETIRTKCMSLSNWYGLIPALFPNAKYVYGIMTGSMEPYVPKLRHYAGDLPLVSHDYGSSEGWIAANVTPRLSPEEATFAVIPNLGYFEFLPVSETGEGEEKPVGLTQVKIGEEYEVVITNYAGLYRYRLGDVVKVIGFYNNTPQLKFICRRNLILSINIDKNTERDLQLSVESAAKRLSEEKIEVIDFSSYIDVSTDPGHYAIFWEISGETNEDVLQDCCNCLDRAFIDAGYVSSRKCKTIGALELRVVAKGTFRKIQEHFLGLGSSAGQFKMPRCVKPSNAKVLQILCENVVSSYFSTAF

Km (GH3-N2/C5) [µM] | Structure (SMILES) | also measured
 | C=C(O[C@@H]1C=C(C(=O)O)C=C[C@H]1O)C(=O)O [chorismate] | TLC with [α-32P]ATP, acyl-AMP and AMP formation (AtGH3.12/PBS3): reactions using BA, 4-HBA, and chorismate produced acyl-AMP and AMP
540 ± 17 | O=C(O)Cc1c[nH]c2ccccc12 [IAA] | 
880 ± 68 | O=C(O)c1ccccc1 [BA] | 
 | Nc1ncnc2c1ncn2[C@@H]1O[C@H](COP(=O)(O)OP(=O)(O)OP(=O)(O)O)[C@@H](O)[C@H]1O [ATP] | single-turnover TLC with [α-32P]ATP, acyl-AMP formation (AtGH3.11/JAR1): rates of turnover from ATP to acyl-AMP (k1)

Structure (SMILES) | Km (GH3-N2/C5) [µM] | also measured
O=C(O)Cc1ccccc1 [PAA] | 1500 ± 280 | 

From PMC11253546, “Fidelity in plant hormone modifications catalyzed by Arabidopsis GH3 acyl acid amido synthetases” (The Journal of Biological Chemistry, 2024)
